Laboratory results from PMC4983413, “Intracellular accumulation of Praziquantel in T lymphoblastoid cell lines, CEM (parental) and CEMVBL(P-gp-overexpressing)” (BMC Pharmacology & Toxicology, 2016).
Where “and” joins values, the source holds several entries; their conditions need not be identical. Equal entries are not always repeated. Entries after “also recorded” stand apart in the source; their conditions may differ. One block for each compound: values may come before it.

Tests used:
[1] = test system: CEM (parental) T-lymphoblastoid cells; assay: Intracellular accumulation (substrate study) in CEM parental cells; format: in vitro ADME; conditions: 10 μg/ml drug, 30 min, 37 °C
Experimental: The parental cell line was CEM (T-lymphoblastoid cell line) was used as the parental cell line. CEMVBL cells that have increased expression of P-gp were selected under vinblastine. The selection of drug resistant cells was carried out by using increasing concentrations of vinblastine up to 100 ng/mL. CEM and CEMVBL Cells were cultured in 175 cm^2 flasks containing DMEM supplemented with 15 % FBS at 37 °C in a humidified 5 % CO2 gassed incubator, conditions which led to doubling after approximately every 24 h.
The cell samples were centrifuged (2000 × g for 5 min at 4 °C) and the supernatant fraction discarded. […] The cells were then incubated at 37 °C for 30 min in a shaking water bath. The resulting cell suspensions were then centrifuged (2000 × g for 5 min at 4 °C). 100 μl samples of the supernatant fraction were then removed, and the aliquots used to determine the extracellular (EXT) concentration. The excess supernatant fraction was then discarded and the resulting cell pellet washed three times in 10 ml HBSS and centrifuged (2000 × g for 5 min). […] The samples were then assayed by HPLC, and the data expressed as cellular accumulation ratio (CAR), the ratio of the intracellular to the extracellular accumulation calculated by the formula, CAR = (INT/EXT) × 10 [intracellular concentrations were calculated using the volume of a single CEM and CEMVBL cell to be 1 picolitre (pl)] […]

[2] = test system: CEMVBL cells which overexpress P-gp; assay: Intracellular accumulation (substrate study) in CEMVBL cells; format: in vitro ADME
Experimental: The parental cell line was CEM (T-lymphoblastoid cell line) was used as the parental cell line. CEMVBL cells that have increased expression of P-gp were selected under vinblastine. The selection of drug resistant cells was carried out by using increasing concentrations of vinblastine up to 100 ng/mL.
(§1) The cell samples were centrifuged (2000 × g for 5 min at 4 °C) and the supernatant fraction discarded. […] The cells were then incubated at 37 °C for 30 min in a shaking water bath. The resulting cell suspensions were then centrifuged (2000 × g for 5 min at 4 °C). 100 μl samples of the supernatant fraction were then removed, and the aliquots used to determine the extracellular (EXT) concentration. The excess supernatant fraction was then discarded and the resulting cell pellet washed three times in 10 ml HBSS and centrifuged (2000 × g for 5 min). The resulting pellets were solubilized by reconstituting in 100 μl of distilled water and used to determine intracellular (INT) concentrations as described in a method previously validated in our laboratory. The experiment was carried out in quadruplicate. The samples were then assayed by HPLC, and the data expressed as cellular accumulation ratio (CAR), the ratio of the intracellular to the extracellular accumulation calculated by the formula, CAR = (INT/EXT) × 10 [intracellular concentrations were calculated using the volume of a single CEM and CEMVBL cell to be 1 picolitre (pl)] [15, 30].

[3] = test system: CEM (parental) T-lymphoblastoid cells; assay: Effect of PZQ and tariquidar on intracellular accumulation of SQV in CEM cells (inhibition study); format: cell-based
Experimental: as §1

P-gp (CEMVBL cells) = biological target: T1, P-gp (CEMVBL cells) (Homo sapiens, UniProt P08183); assay: Effect of PZQ and tariquidar on intracellular accumulation of SQV in CEMVBL cells (inhibition study); format: cell-based
T1 construct: CEMVBL cells that have increased expression of P-gp were selected under vinblastine; endogenous in cells; host or cells: CEMVBL (vinblastine-selected CEM T-lymphoblastoid cells)
T1 sequence (P08183 whole entry): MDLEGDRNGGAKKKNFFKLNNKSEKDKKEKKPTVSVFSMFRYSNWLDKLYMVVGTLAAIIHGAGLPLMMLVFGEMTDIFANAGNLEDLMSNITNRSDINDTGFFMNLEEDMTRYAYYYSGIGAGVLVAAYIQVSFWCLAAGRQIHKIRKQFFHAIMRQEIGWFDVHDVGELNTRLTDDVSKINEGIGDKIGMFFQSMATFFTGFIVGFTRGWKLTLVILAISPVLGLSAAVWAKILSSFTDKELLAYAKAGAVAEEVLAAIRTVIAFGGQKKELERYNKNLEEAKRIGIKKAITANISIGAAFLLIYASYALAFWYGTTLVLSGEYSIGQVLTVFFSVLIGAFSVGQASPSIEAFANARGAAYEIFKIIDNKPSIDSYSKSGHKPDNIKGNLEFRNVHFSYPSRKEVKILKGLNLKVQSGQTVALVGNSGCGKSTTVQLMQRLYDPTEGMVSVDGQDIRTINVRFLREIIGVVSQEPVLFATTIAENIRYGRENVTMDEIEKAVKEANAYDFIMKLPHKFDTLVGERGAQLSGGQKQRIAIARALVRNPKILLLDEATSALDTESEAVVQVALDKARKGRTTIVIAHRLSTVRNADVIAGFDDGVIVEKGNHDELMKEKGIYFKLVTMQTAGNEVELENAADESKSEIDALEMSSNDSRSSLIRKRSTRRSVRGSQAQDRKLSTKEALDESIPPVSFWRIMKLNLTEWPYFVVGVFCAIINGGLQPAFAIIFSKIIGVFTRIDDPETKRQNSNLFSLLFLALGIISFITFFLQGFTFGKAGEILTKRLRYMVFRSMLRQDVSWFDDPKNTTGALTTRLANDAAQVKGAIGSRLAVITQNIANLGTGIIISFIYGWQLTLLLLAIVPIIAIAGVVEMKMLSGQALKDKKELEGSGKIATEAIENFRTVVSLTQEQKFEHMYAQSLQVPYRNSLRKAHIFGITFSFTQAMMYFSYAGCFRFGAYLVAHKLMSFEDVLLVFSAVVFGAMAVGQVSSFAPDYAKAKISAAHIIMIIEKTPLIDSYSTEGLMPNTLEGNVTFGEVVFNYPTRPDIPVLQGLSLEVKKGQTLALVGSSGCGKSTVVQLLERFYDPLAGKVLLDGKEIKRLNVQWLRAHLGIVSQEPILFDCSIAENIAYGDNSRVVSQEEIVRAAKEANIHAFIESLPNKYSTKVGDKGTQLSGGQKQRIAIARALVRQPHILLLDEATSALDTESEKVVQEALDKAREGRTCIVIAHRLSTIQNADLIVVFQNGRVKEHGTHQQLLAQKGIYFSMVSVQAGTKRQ
Experimental: as §1

[4] = Freeze-thaw stability of QC samples in DMEM (HPLC); format: physicochemical; conditions: for Stability, Mean: freeze-thawed versus freshly prepared samples, peak areas; for Effect of freeze thawing on concentration in DMEM: freeze-thawed versus fresh DMEM samples
Description: The separation from endogenous compounds was investigated by analyzing six different samples of DMEM. Short and long term stability was investigated by comparing the peak areas of six freshly prepared QC assay samples to those of the freeze-thawed samples, and it was expressed as a percentage.

P-gp = test system: P-gp; set-up: method as in PMID 16846720; conditions: Caco-2 cell lines; cited from earlier work
[5] = test system: cellular efflux pumps (P-gp); set-up: method as in PMID 15847994, PMID 20513441; conditions: cited from earlier work
SMDR2, a P-gp orthologue = test system: SMDR2, a P-gp orthologue; set-up: method as in PMID 19726755; conditions: cited from earlier work

Cellular accumulation ratio (CAR), individual sample ([1]; CAR = (INT/EXT) × 10, samples 1-4): 0.03 and 0.05 and 0.04 | Cellular accumulation ratio (CAR), mean ([1]; mean (± SD), n = 4): 0.04 ± 0.009 and 0.04 | Cellular accumulation ratio (CAR), mean ([2]; CEMVBL cells, 10 μg/ml drug, 30 min, 37 °C, mean (± SD), n = 4): 0.05 ± 0.005 and 0.05 | Cellular accumulation ratio (CAR), individual sample ([2]; CEMVBL cells, 10 μg/ml drug, 30 min, 37 °C, samples 1-4): 0.06 and 0.05 | Stability, Mean ([4]; HQC 19.2 μM in DMEM): 109 (±3) % | Stability, Mean ([4]; LQC 6.4 μM in DMEM): 105 (±4) % | Stability, Mean ([4]; MQC 12.8 μM in DMEM): 113 (±6) %
Structure (SMILES): O=C(C1CCCCC1)N1CC(=O)N2CCc3ccccc3C2C1 (centres unmarked) [PZQ, Praziquantel]
P-gp substrate specificity (conclusion) ([2]; comparison of accumulation in CEM and CEMVBL cells): not a substrate of P-gp; also recorded: neither a substrate nor an inhibitor of P-gp | CAR of SQV in presence of PZQ, mean ([3]; 10 μg/ml SQV + 10 μg/ml PZQ, mean (± SD), n = 4): 0.54 ± 0.061 and 0.54 | CAR of SQV in presence of PZQ, individual sample ([3]; 10 μg/ml SQV + 10 μg/ml PZQ, samples 1-4): 0.45 and 0.57 and 0.59 and 0.53 | P-gp inhibition (conclusion) (P-gp (CEMVBL cells); effect on SQV accumulation in CEMVBL cells compared to tariquidar): not an inhibitor of P-gp; also recorded: neither a substrate nor an inhibitor of P-gp | Effect of freeze thawing on concentration in DMEM [4]: did not appear to significantly affect the concentrations | P-gp inhibitor / substrate status (P-gp): an inhibitor of P-gp without being a substrate | Interaction with cellular efflux pumps / P-gp substrate status [5]: did not show potential for interacting with cellular efflux pumps; also recorded: not a substrate | Permeability [5]: highly permeable substance | Inhibition of transport by SMDR2 (SMDR2, a P-gp orthologue): inhibit the transport by SMDR2

Structure (SMILES): COc1cc2c(cc1OC)CN(CCc1ccc(NC(=O)c3cc(OC)c(OC)cc3NC(=O)c3cnc4ccccc4c3)cc1)CC2 [tariquidar]
CAR of SQV in presence of tariquidar (XR), mean ([3]; 10 μg/ml SQV + 1 μM tariquidar, mean (± SD), n = 4): 0.61 ± 0.102 and 0.61 | CAR of SQV in presence of tariquidar (XR), individual sample ([3]; 10 μg/ml SQV + 1 μM tariquidar, samples 1-4, listed as XR): 0.55 and 0.51 and 0.73 and 0.66

CAR of SQV alone, mean (inhibition study) ([3]; 10 μg/ml SQV alone, mean (± SD), n = 4): 0.52 ± 0.068 and 0.52 | CAR of SQV alone, individual sample (inhibition study) ([3]; 10 μg/ml SQV alone, samples 1-4): 0.57 and 0.50 and 0.59 and 0.44 | CAR of SQV alone, mean (inhibition study) (P-gp (CEMVBL cells); CEMVBL cells, 10 μg/ml SQV alone, mean (± SD), n = 4): 0.09 ± 0.015 and 0.09 | CAR of SQV alone, individual sample (inhibition study) (P-gp (CEMVBL cells); CEMVBL cells, 10 μg/ml SQV alone, samples 1-4): 0.07 and 0.10 and 0.11
Structure (SMILES): CC(C)(C)NC(=O)[C@@H]1C[C@@H]2CCCC[C@@H]2CN1C[C@@H](O)[C@H](Cc1ccccc1)NC(=O)[C@H](CC(N)=O)NC(=O)c1ccc2ccccc2n1 [SQV, Saquinavir]
Effect of freeze thawing on concentration in DMEM [4]: did not appear to significantly affect the concentrations
